Reference: ChEMBL document CHEMBL1201862, “PubChem BioAssay data set” (2004)
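Dose response: 5 concentrations. Exposure: 48 h. Format: 96-well plates. Endpoint: linear interpolation; highest concentration if not reached. GI50 marks 50% less growth.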 Active and inactive are the calls of the source. Rule as the data show it: active = GI50 up to about 1.1 µM and inactive = higher.

Key:
Assay in all cases: NCI-60 cell line screen, 48 h
786-0 = system: 786-0
CAKI-1 = system: CAKI-1
CCRF-CEM = system: CCRF-CEM
COLO 205 = system: COLO 205
HCC 2998 = system: HCC 2998
HOP-62 = system: HOP-62
IGROV-1 = system: IGROV-1
K562 = system: K562
LOX IMVI = system: LOX IMVI
M14 = system: M14
MOLT-4 = system: MOLT-4
NCI-H226 = system: NCI-H226
NCI-H23 = system: NCI-H23
OVCAR-8 = system: OVCAR-8
PC-3 = system: PC-3
SF-539 = system: SF-539
SK-MEL-5 = system: SK-MEL-5
UACC-62 = system: UACC-62
UO-31 = system: UO-31

Measured: GI50

NC(CSS(=O)(=O)c1ccccc1)C(=O)O (centres undefined)
inactive: 786-0 > 10 µM | CAKI-1 > 10 µM | CCRF-CEM > 10 µM | COLO 205 > 10 µM | HCC 2998 > 10 µM | HOP-62 > 10 µM | IGROV-1 > 10 µM | K562 > 10 µM | LOX IMVI > 10 µM | M14 > 10 µM | MOLT-4 > 10 µM | NCI-H226 > 10 µM | NCI-H23 > 10 µM | OVCAR-8 > 10 µM | PC-3 > 10 µM | SF-539 > 10 µM | SK-MEL-5 > 10 µM | UACC-62 > 10 µM | UO-31 > 10 µM

COC[C@@H](/N=C/C(C)(C)C)C(C)C
inactive: 786-0 > 100 µM | CAKI-1 > 100 µM | CCRF-CEM > 100 µM | COLO 205 > 100 µM | HCC 2998 > 100 µM | HOP-62 > 100 µM | IGROV-1 > 100 µM | K562 > 100 µM | LOX IMVI > 100 µM | M14 > 100 µM | MOLT-4 > 100 µM | NCI-H226 > 100 µM | NCI-H23 > 100 µM | OVCAR-8 > 100 µM | PC-3 > 100 µM | SF-539 > 100 µM | SK-MEL-5 > 100 µM | UACC-62 > 100 µM | UO-31 > 100 µM

CCCCCC(/C=C/C1CCC(=O)C1CC#C[Si](C)(C)C)OCc1ccccc1 (centres undefined)
inactive: 786-0 14.6 µM | CAKI-1 17.9 µM | CCRF-CEM 10.5 µM | COLO 205 19.2 µM | HCC 2998 17.9 µM | HOP-62 19.1 µM | IGROV-1 14.5 µM | K562 19.1 µM | LOX IMVI 15.7 µM | M14 25 µM | MOLT-4 > 37.8 µM | NCI-H226 30.5 µM | NCI-H23 22.2 µM | OVCAR-8 14.8 µM | PC-3 17.3 µM | SF-539 12.1 µM | SK-MEL-5 13.2 µM | UACC-62 13.5 µM | UO-31 15.5 µM

CN(C)/C=N/Cc1ccc2c(c1)OCO2
inactive: 786-0 > 100 µM | CAKI-1 > 100 µM | CCRF-CEM > 100 µM | COLO 205 > 100 µM | HCC 2998 > 100 µM | HOP-62 > 100 µM | IGROV-1 > 100 µM | K562 > 100 µM | LOX IMVI > 100 µM | M14 > 100 µM | MOLT-4 > 100 µM | NCI-H226 > 100 µM | NCI-H23 > 100 µM | OVCAR-8 > 100 µM | PC-3 > 100 µM | SF-539 > 100 µM | SK-MEL-5 > 100 µM | UACC-62 > 100 µM | UO-31 > 100 µM

COc1c2c(c(CC=C(C)C)c3oc(=O)c(-c4ccc(O)cc4)c(O)c13)OC(C)(C)C=C2 [LONCHOCARPIC ACID]
inactive: 786-0 25.5 µM | CAKI-1 40.6 µM | CCRF-CEM 23.7 µM | COLO 205 23.4 µM | HCC 2998 20.8 µM | HOP-62 23.4 µM | IGROV-1 18.4 µM | K562 29.5 µM | LOX IMVI 34.4 µM | M14 25.8 µM | MOLT-4 24.9 µM | NCI-H226 21.5 µM | NCI-H23 43.9 µM | OVCAR-8 29 µM | PC-3 31.5 µM | SF-539 15.1 µM | SK-MEL-5 12.8 µM | UACC-62 21.2 µM | UO-31 27.8 µM

O=S(=O)(O)c1c(Cl)c(Cl)c(O)c2ncccc12
inactive: 786-0 8.02 µM | CAKI-1 18.6 µM | CCRF-CEM 4.01 µM | COLO 205 9.95 µM | HCC 2998 13.5 µM | HOP-62 5 µM | IGROV-1 4.2 µM | K562 7.57 µM | LOX IMVI 2.19 µM | M14 12 µM | MOLT-4 3.33 µM | NCI-H226 20.9 µM | NCI-H23 11.2 µM | OVCAR-8 10.3 µM | PC-3 10.8 µM | SF-539 16 µM | SK-MEL-5 9.68 µM | UACC-62 8.34 µM | UO-31 7.08 µM

N=C(N)N/N=C/c1c(-c2cccc([N+](=O)[O-])c2)nc2n1CCS2
inactive: 786-0 29.3 µM | CAKI-1 31.7 µM | CCRF-CEM 22.2 µM | COLO 205 8.32 µM | HCC 2998 19.4 µM | HOP-62 22.4 µM | IGROV-1 15.6 µM | K562 11.2 µM | LOX IMVI 16.6 µM | M14 24.4 µM | MOLT-4 11.4 µM | NCI-H226 20.3 µM | NCI-H23 25.5 µM | OVCAR-8 16.7 µM | PC-3 16.9 µM | SF-539 20 µM | SK-MEL-5 14.8 µM | UACC-62 17.9 µM | UO-31 15.5 µM

CCOC(=O)c1cc2cc(N(C(C)=O)C(C)=O)ccc2s1
inactive: 786-0 27.2 µM | CAKI-1 39.4 µM | CCRF-CEM 21.9 µM | COLO 205 33.7 µM | HCC 2998 35.4 µM | HOP-62 48.1 µM | IGROV-1 38 µM | K562 24.7 µM | LOX IMVI 33.5 µM | M14 25.1 µM | MOLT-4 18.6 µM | NCI-H226 20.4 µM | NCI-H23 45.3 µM | OVCAR-8 26.8 µM | PC-3 20.5 µM | SF-539 27 µM | SK-MEL-5 20.7 µM | UACC-62 31.6 µM | UO-31 27.7 µM

CCCCCCCCC[C@@H]1C[C@@H]2CCC3C(C(=O)OCCCCNC(=O)OCc4ccccc4)=C(C)N=C(N1)N32 (some centres undefined)
inactive: 786-0 1.76 µM | CAKI-1 3.62 µM | CCRF-CEM 2.52 µM | COLO 205 1.62 µM | HCC 2998 3.06 µM | HOP-62 3.75 µM | IGROV-1 2.43 µM | K562 1.77 µM | LOX IMVI 2.09 µM | M14 2.55 µM | MOLT-4 2.59 µM | NCI-H226 3.58 µM | NCI-H23 2.56 µM | OVCAR-8 2.58 µM | PC-3 2.47 µM | SF-539 3.86 µM | SK-MEL-5 1.59 µM | UACC-62 3.44 µM | UO-31 4.49 µM

C(/C=N/N=C1NCCN1)=N\N=C1NCCN1
inactive: 786-0 > 100 µM | CAKI-1 > 100 µM | CCRF-CEM > 100 µM | COLO 205 > 100 µM | HCC 2998 > 100 µM | HOP-62 > 100 µM | IGROV-1 > 100 µM | K562 17.8 µM | LOX IMVI > 100 µM | M14 > 100 µM | MOLT-4 > 100 µM | NCI-H226 > 100 µM | NCI-H23 > 100 µM | OVCAR-8 > 100 µM | PC-3 > 100 µM | SF-539 > 100 µM | SK-MEL-5 > 100 µM | UACC-62 > 100 µM | UO-31 > 100 µM

CC(C)(C)n1c(=O)[nH]c(=O)n1C(C)(C)C
inactive: 786-0 > 100 µM | CAKI-1 > 100 µM | CCRF-CEM > 100 µM | COLO 205 > 100 µM | HCC 2998 > 100 µM | HOP-62 > 100 µM | IGROV-1 > 100 µM | K562 > 100 µM | LOX IMVI > 100 µM | M14 > 100 µM | MOLT-4 > 100 µM | NCI-H226 > 100 µM | NCI-H23 > 100 µM | OVCAR-8 > 100 µM | PC-3 > 100 µM | SF-539 > 100 µM | SK-MEL-5 > 100 µM | UACC-62 > 100 µM | UO-31 > 100 µM
